Test results: patent US20050203061A1, “Prodrug, medicinal utilization thereof and process for producing the same” (priority 2002, published 2005)

Columns and labels:
[1] = system: airway pressure of guinea pig sensitized with ovalbumin; assay: Antigen (ovalbumin) induced airway contraction, immediate type asthmatic model, Konzett and Rossler method; type: in vivo; conditions: for increase ratio of the airway pressure / inhibition compared to the control group / increase in the airway pressure: 10 min; for inhibition of the immediate type asthmatic reaction (airway contraction): inhalation administration, guinea pigs
Procedure: In order to examine the bronchodilation effect of the glucuronides of salbutamol and isoprenaline of β2-agonists, an asthmatic model of a guinea pig sensitized with ovalumin was used. The test was conducted in accordance with the method of Konzett and Rossler (Arch. Exp. Pathol. Pharmakol., 195, 71-75, 1940).
On day 1 and day 8 after the initiation of sensitization, 500 μg/0.5 mL of ovalbumin was intramuscularly administered to both legs of a guinea pig and 1.5×10^5 cells/mL/animal of pertussis vaccine was intraperitoneally administered to effect active sensitization. On day 15 after the initiation of sensitization, 10 and 100 μg/site of ovalbumin were intradermally administered to the back of the guinea pig, respectively, to check the state of sensitization. Only the animals which were found positive by the sensitization check 6 hours after the intradermal sensitization were used in the experiment.
As the test substance, a drug solution was atomized by reducing the atomizing amount of an ultrasonic nebulizer to generate an aerosol, and the aerosol was then led into an exposure chamber (M.I.P.S. Co.), sucked at a rate of 3 L/min with the use of an air pump (SPP-3GA, Techno Takatsuki Co.) and administered to the guinea pig for 10 minutes by inhalation 40 minutes before the challenge of ovalbumin.
On day 10 to 23 after the initiation of sensitization, the animals were anesthetized with sodium pentobarbital (50 mg/kg, i.p.), and cannulation was conducted into the trachea. Through the tracheal cannula the animals were connected to an artificial respirator and the change in the ventilation pressure under artificial respiration (a ventilation amount of 10 mL/kg, a ventilation frequency of 50 times/min) was recorded as the airway pressure through a differential pressure transducer (Validyne, Gould Electronics) connected to the tracheal cannula on a recorder (WT-645G, Nihon Koden Co., Ltd.). The airway pressure was measured up to 10 minutes after the administration of ovalbumin. Then, cannulation was conducted into the right and left common carotid veins. From the left cannulation, gallamine (10 mg/mL) in a volume of 1 mL/kg was intravenously administered ([…]) to confirm the disappearance of spontaneous respiration. Thereafter, ovalbumin was intravenously administered to induce an antigen-antibody reaction. The measuring points of the airway pressure were set at a time before induction, and at 1, 3, 5, 7, and 10 minutes after induction. The ratio of the increase in the airway pressure is represented by the percentage of the values obtained by subtracting the observed value before induction from the observed value at each measuring time after induction based on the maximum occlusion at each measuring time.
As the test substances, salbutamol glucuronide and isoprenaline glucuronide were used. The salbutamol glucuronide is a white powder and the isoprenaline glucuronide is a brown crystal and both were stored at −80° C. under protection from light. As the control substances for comparison, each of sulbutamol chloride (hereinafter referred to as sulbutamol) and isoprenaline chloride (hereinafter referred to as isoprenaline) was used. The salbutamol and the isoprenaline are white powders and were stored at room temperature under protection from light. The test substances and the control substances for comparison were weighed in a necessary amount and dissolved in physiological saline (products of Otsuka Pharmaceutical Factory, Inc., Lot Nos. 1D78 and 1E84) to effect the preparation before using. The concentrations of the test substances and the control substances for comparison in solutions were rendered equivalent amounts by molar concentration. All solutions were nearly stable at room temperature for 24 hours.
The obtained experimental results were shown by mean values and standard deviations with airway pressure. As to the test of significance, the Student's t test without any correspondence was conducted when two groups were compared. […]

[2] = system: blood pressure and heart rate; assay: Blood pressure and heart rate after generalized inhalation exposure; type: in vivo, Crj:CD(SD) rats; conditions: inhalation 10 min; for increase of the heart rate: after five minutes
Procedure: The test was conducted by using Crj:CD(SD) rats with each group of 6 rats.
Surgery was carried out under the anesthesia of a mixed gas of oxygen, nitrous oxide and isoflurane, and one end of a polyethylene tube (PE50, Becton Dickinson) filled with physiological saline containing heparin (100 U/mL) was inserted into a common carotid artery and indwelled, and the other end was passed through the neighborhood of the neck of the back of the animal and connected to a cannula (Instec Co.) installed at the upper portion of an exposure chamber. This cannula was connected to a pressure transducer (P23XL. Gould Electronics) through a polyethylene tube. Further, the periphery of the polyethylene tube from the back of the rat up to this cannula was passed through a metallic spring to prevent a damage to be caused by the rat.
The administration of the drugs was conducted by preparing an exposure chamber and subjecting the rat with a cannula for measuring blood pressure in the indwelled state in the common cartoid artery to the generaliged inhalation exposure. This method is typically used in the generalized inhalation exposure.
The signals from the pressure transducer (P23XL, Gould Electronics) were led to a pressure processor signal conditioner (Gould Electronics) and recorded on a thermal array recorder (RS3400, Gould Electronics). The blood pressure and the heart rate were continuously recorded from before the initiation of administration to 20 minutes after the completion of administration. The administration of the drugs was initiated when not less than one hour after waking passed and the measurement parameters were stabilized.
Test substances were prepared in the same manner as in Example 1.
The representative values of each group were shown by mean values [[…] (S.E.)]. With the mean values of each group, the test of significance was conducted by the Tukey's multiple test. Further, the significant standard was regarded as 5%.

[3] = system: airway pressure of guinea pig sensitized with ovalbumin; assay: Antigen (ovalbumin) induced airway contraction, immediate type asthmatic model, Konzett and Rossler method; type: in vivo; conditions: for inhibition compared to the control group: 10 min
[4] = Blood analysis after oral administration (glucuronidation); type: in vivo, and monkeys; conditions: mice, rats, guinea pigs, dogs, monkeys (any species)
Procedure: (§1) The smooth muscle contraction induced in the tracheal smooth muscle sample of a pig with a high concentration of KCl or carbachol is inhibited with an IC50 of about 5 μM. […] In mice, rats, guinea pigs, dogs, and monkeys, as the result of blood analysis after the administration, not less than 99% of the compound was the glucuronic conjugate in any of the animal species.

[5] = system: tracheal smooth muscle sample of a pig; assay: In vitro inhibition of smooth muscle contraction induced with high concentration of KCl or carbachol; type: cell-based
Procedure: as §1

[6] = inhalation 0.157%, after three minutes
[7] = inhalation 0.1%, three minutes after antigen induction
[8] = 1 mg/L, during 30 minutes of measurement
[9] = inhalation 0.072%, after three minutes
[10] = 5 mg/L, during 30 minutes of measurement

In the case of CC(C)NCC(O)c1ccc(O[C@@H]2OC(C(=O)O)[C@@H](O)C(O)C2O)c(O)c1 (stereo partly drawn) [isoprenaline glucuronide, 4-O-(β-D-Glucuronyl)-isoprenaline], the “increase ratio of the airway pressure” value [1, 6] is reported as “about 10%”, the “inhibition compared to the control group” value [1, 6] is reported as “about 77%” and the “inhibition of the immediate type asthmatic reaction (airway contraction)” value [1] is reported as “significantly inhibit”. The “effect on blood pressure and heart rate” value ([2]; 1.57 mg/L) was “no effect was recognized at all”.
For CCC1Cc2c(O)cc(O)cc2Sc2ccccc21 (stereo not shown) [11-Ethyl-7,9-dihydroxy-10,11-dihydrobenzo[b,f]thiepin], the airway contraction inhibition ([3]; oral administration, 10 mg/kg) was “showed the airway contraction inhibition”, the “portion of the compound present as glucuronic conjugate in blood” value [4] was “not less than 99%” and the IC50 [5] was roughly 5 µM.
In the case of CC(C)NCC(O)c1ccc(O)c(O)c1 (stereo not shown) [isoprenaline], the “increase in the airway pressure” value [1, 7] is reported as “about 12%”, the “inhibition compared to the control group” value [3, 7] is reported as “about 73%” and the “increase of the heart rate” value ([2]; 1 mg/L) is reported as “about 49%”. For the same compound, the “maximum decrease of the blood pressure” value [2, 8] was 28%, the “maximum increase of the heart rate” value [2, 8] was 50% and the “decrease of the blood pressure vs before the treatment” value ([2]; 1 mg/L, five minutes after completion of inhalation) was “about 27%”. It also gave a blood pressure ([2]; isoprenaline 1 mg/L, five minutes after completion of inhalation) of 72 mmHg.
For CC(C)(C)NCC(O)c1ccc(O)c(CO[C@@H]2OC(C(=O)O)[C@@H](O)C(O)C2O)c1 (stereo partly drawn) [salbutamol glucuronide, 3-O-(β-D-Glucuronyl)-salbutamol], the “increase ratio of the airway pressure” value [1, 9] was “about 20%”, the “inhibition of the immediate type asthmatic reaction (airway contraction)” value [1] was “significantly inhibit” and the “inhibition compared to the control group” value [3, 9] was “about 56%”. For the same compound, the “effect on blood pressure and heart rate” value ([2]; 7.2 mg/L) was “no effect was observed at all”.
In the case of CC(C)(C)NCC(O)c1ccc(O)c(CO)c1 (stereo not shown) [salbutamol], the “increase in the airway pressure” value ([1]; inhalation 0.05%, 40 min before challenge, three minutes after antigen induction) is reported as “about 3%”, the “inhibition compared to the control group” value ([1]; inhalation 0.05%, three minutes after antigen induction) is reported as “about 92%” and the “increase of the heart rate” value ([2]; 5 mg/L) is reported as “about 36%”. For the same compound, the “maximum blood pressure decrease ratio” value [2, 10] was 27%, the “maximum heart rate increase ratio” value [2, 10] was 39% and the “decrease of the blood pressure vs before inhalation (pre)” value ([2]; 5 mg/L, five minutes after completion of inhalation) was “about 26%”. It also gave a blood pressure ([2]; salbutamol 5 mg/L, five minutes after completion of inhalation) of 75 mmHg.
